Data reported in patent US5506256A, “Proline derivatives possessing prolyl endopeptidase-inhibitory activity” (Yoshitomi Pharmaceutical Industries, Ltd., priority 1990, dated 1996).

Columns and labels:
prolyl endopeptidase = molecular target: T1, prolyl endopeptidase (Rattus norvegicus, UniProt O70196); assay: Prolyl endopeptidase-inhibitory activity; assay type: biochemical; conditions: for inhibition at 0.1 µM / inhibition at 1 µM: read-out: inhibition rate, prolyl endopeptidase; for IC50: prolyl endopeptidase extracted from rat brain, pH 7.0, 30° C., read-out: IC50
T1 construct: prolyl endopeptidase extracted from rat brain; from tissue; host or cells: rat brain
Method: Prolyl endopeptidase-inhibitory activity
A mixture of a 0.1M potassium sodium phosphate buffer (pH 7.0) (2675 μl), a solution of the compounds of the present invention in a 0.1M potassium sodium phosphate buffer (pH 7.0) (100 μl) and a solution of prolyl endopeptidase extracted from rat brain in a 25 mM sodium phosphate buffer (100 μl) [123 unit/1, pH 6.8, containing 1 mM dithiothreitol and 0.5 mM EDTA, prepared by the method described in J. Neurochem., 35, 527 (1980)]was preincubated at 30° C. for 30 minutes. Thereto was added a 0.2 mM solution of 7-(N-succinyl-glycyl-prolyl)-4-methylcoumarinamide (Peptide Institute, INC.) in a 0.1M potassium sodium phosphate buffer (pH 7.0) (125 μl), and the mixture was incubated at 30° C. for 1 hour. The reaction mixture was immersed in ice (0° C.) to terminate the reaction, and the fluorescence (a1) was determined ten minutes later (excitation at 370 nm and emission at 440 nm). Concurrently, there were conducted the experiment wherein, in the above system, the prolyl endopeptidase solution was substituted for a 25 mM sodium phosphate buffer (pH 6.8, containing 1 mM dithiothreitol and 0.5 mM EDTA) and the experiment wherein the solution of the compounds of the present invention was substituted for a 0.1M potassium sodium phosphate buffer (pH 7.0). Each fluorescence (a2 and a3) was determined respectively [See Tanpakushitsu Kakusan Koso, 29, 127 (1984)]. The prolyl endopeptidase-inhibition rate was calculated by the following formula, and IC50, a concentration of a compound producing 50% inhibition, was estimated by semilogarithmic graph paper. [formula] […]

trypsin = molecular target: T2, trypsin (Bos taurus, UniProt P00760); assay: Determination of trypsin-inhibitory activity; assay type: biochemical, bovine; conditions: read-out: inhibition rate, trypsin
T2 construct: purchased Sigma; host or cells: bovine pancreas
T2 sequence (P00760 24-246): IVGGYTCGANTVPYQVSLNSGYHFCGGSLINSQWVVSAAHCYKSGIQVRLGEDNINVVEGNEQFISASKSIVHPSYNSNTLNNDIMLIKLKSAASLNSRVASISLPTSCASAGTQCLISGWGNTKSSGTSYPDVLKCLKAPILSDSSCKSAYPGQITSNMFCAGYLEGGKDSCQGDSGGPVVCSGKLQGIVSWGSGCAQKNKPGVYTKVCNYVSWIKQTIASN
Method: (§1) The methods for the measurement of inhibitory activities against various proteases and the method for calculating the inhibition rate are as follows.
Determination of trypsin-inhibitory activity
In the present invention, a 50 mM Tris-HCl buffer (pH 8.0) was employed as a buffer for measurement.
To a mixture of the above-mentioned buffer (850 μl), a solution of the compounds of the present invention in the same buffer (50 μl) and a 0.02 μM solution of trypsin (derived from bovine pancreas, Sigma) in the same buffer (50 μl) was added a 200 μM solution of 7-(prolyl-phenylaranyl-arginyl)-4-methylcoumarinamide (Peptide Institute, Inc.) in the same buffer (50 μl),and the mixture was incubated at 30° C. for 1 hour. The reaction mixture was immersed in ice (0° C.) to terminate the reaction, and the fluorescence (b1) was determined 1 hour later (excitation at 370 nm and emission at 440 nm). Concurrently, there were conducted the experiment wherein, in the system above, the trypsin solution was substituted for a buffer alone, and the experiment wherein the solution of the compounds of the present invention was substituted for a buffer above. Each fluorescence (b2 and b3) was determined respectively.
(§2) Using the fluorescence x1, x2 and x3 measured in the abovementioned manner, the inhibitory rate against various proteases was calculated by the following formula where x stands for b, c, d, e or f: [formula]

chymotrypsin = molecular target: T3, chymotrypsin (Bos taurus, UniProt P00766); assay: Determination of chymotrypsin-inhibitory activity; assay type: biochemical, bovine; conditions: read-out: inhibition rate, chymotrypsin
T3 construct: purchased Sigma; host or cells: bovine pancreas
Method: as §1
Determination of chymotrypsin-inhibitory activity
Similarly, by following the procedure mentioned above, but employing a 50 mM Tris-HCl buffer (pH 8.0) as a buffer for measurement, a 0.2 μM solution of chymotrypsin (derived from bovine pancreas, Sigma) in the same buffer as an enzyme solution and a […] solution of 7-(N-succinyl-leucyl-leucyl-valyl-tyrosyl)-4-methylcoumarinamide (Peptide Institute, Inc.) in the same buffer as a substrate solution, each fluorescence (c1, c2 and c3) was determined, respectively.
as §2

leucine aminopeptidase = assay: Determination of leucine aminopeptidase-inhibitory activity; assay type: biochemical, swine; design: unit not given here
Method: as §1
Determination of leucine aminopeptidase-inhibitory activity
Similarly, by following the procedure mentioned above, but employing a 50 mM Tris-HCl buffer (pH 8.0) as a buffer for measurement, a […] solution of leucine aminopeptidase (derived from swine kidney, Sigma) in the same buffer as an enzyme solution and a 200 μM solution of 7-leucyl-4-methyl-coumarinamide (Peptide Institute, Inc.) in the same buffer as a substrate solution, each fluorescence (d1, d2 and d3) was determined, respectively.
as §2

elastase = molecular target: T4, elastase (Sus scrofa, UniProt P00772); assay: Determination of elastase-inhibitory activity; assay type: biochemical, swine; conditions: read-out: inhibition rate, elastase
T4 construct: purchased Sigma; host or cells: swine pancreas
Method: as §1
Determination of elastase-inhibitory activity
Similarly, by following the procedure mentioned above, but employing a 1 mM Tris-HCl buffer (pH 8.5) as a buffer for measurement, a 0.2 μM solution of elastase (derived from swine pancreas, Sigma) in the same buffer as an enzyme solution and a 200 μM solution of 7-(N-succinyl-aranyl-prolyl-aranyl)-4-methylcoumarinamide (Peptide Institute, Inc.) in the same buffer as a substrate solution, each fluorescence (e1, e2 and e3) was determined, respectively.
as §2

cathepsin B = molecular target: T5, cathepsin B (Bos taurus, UniProt P07688); assay: Determination of cathepsin B-inhibitory activity; assay type: biochemical, bovine; conditions: read-out: inhibition rate, cathepsin B
T5 construct: purchased Sigma; host or cells: bovine spleen
Method: as §1
Determination of cathepsin B-inhibitory activity
Similarly, by following the procedure mentioned above, but employing a 100 mM sodium phosphate buffer (pH 6.0; containing 1.33 mM EDTA Na2) as a buffer for measurement, a 0.02 μM solution of cathepsin B (derived from bovine spleen, Sigma) in the same buffer as an enzyme solution and a 200 μM solution of 7-(N-benzyloxycarbonyl-phenylaranyl-arginyl)-4-methylcoumarinamide (Peptide Institute, Inc.) in the same buffer as a substrate solution, each fluorescence (f1, f2 and f3) was determined, respectively.
as §2

T4 sequence (P00772 27-266): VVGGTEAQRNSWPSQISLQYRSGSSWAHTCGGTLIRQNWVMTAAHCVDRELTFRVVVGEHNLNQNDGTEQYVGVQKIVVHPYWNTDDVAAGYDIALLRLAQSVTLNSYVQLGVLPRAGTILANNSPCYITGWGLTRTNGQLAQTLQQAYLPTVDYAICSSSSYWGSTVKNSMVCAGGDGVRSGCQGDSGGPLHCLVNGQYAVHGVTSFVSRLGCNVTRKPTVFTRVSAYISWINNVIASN
T1 sequence (O70196 whole entry): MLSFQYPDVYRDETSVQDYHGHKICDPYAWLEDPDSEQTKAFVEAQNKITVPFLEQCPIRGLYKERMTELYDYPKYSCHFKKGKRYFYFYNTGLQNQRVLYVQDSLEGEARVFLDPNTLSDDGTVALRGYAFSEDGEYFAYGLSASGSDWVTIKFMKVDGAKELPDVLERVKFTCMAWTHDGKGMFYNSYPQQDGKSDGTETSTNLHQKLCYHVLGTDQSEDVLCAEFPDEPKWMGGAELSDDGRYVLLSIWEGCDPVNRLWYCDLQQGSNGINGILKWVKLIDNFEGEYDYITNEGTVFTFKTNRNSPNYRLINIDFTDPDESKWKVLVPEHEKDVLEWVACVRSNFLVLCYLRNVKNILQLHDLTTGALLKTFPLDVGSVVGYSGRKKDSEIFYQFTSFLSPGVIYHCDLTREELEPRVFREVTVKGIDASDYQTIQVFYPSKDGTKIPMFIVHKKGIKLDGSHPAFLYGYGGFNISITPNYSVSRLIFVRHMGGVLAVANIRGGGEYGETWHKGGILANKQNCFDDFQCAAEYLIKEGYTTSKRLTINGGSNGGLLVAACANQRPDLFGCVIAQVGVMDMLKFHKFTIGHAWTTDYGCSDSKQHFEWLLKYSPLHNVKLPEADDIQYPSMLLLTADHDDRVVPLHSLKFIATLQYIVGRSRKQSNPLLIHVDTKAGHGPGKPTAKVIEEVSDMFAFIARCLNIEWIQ

| SMILES | inhibition at 0.1 µM (prolyl endopeptidase) [%] | IC50 (prolyl endopeptidase) [nM] | inhibition at 0.1 µM (trypsin) [%] | inhibition at 0.1 µM (chymotrypsin) [%] | inhibition rate, leucine aminopeptidase (leucine aminopeptidase; 0.1 μM) | inhibition at 0.1 µM (elastase) [%] | inhibition at 0.1 µM (cathepsin B) [%] | inhibition at 1 µM (prolyl endopeptidase) [%] | inhibition at 1 µM (trypsin) [%] | inhibition at 1 µM (chymotrypsin) [%] | inhibition rate, leucine aminopeptidase (leucine aminopeptidase; 1 μM) | inhibition at 1 µM (elastase) [%] | inhibition at 1 µM (cathepsin B) [%] |
| --- | --- | --- | --- | --- | --- | --- | --- | --- | --- | --- | --- | --- | --- |
| Cc1ccc([S@+]([O-])CC(=O)[C@@H]2CCCN2C(=O)[C@@H]2CCCN2C(=O)OCc2ccccc2)cc1 [Compound 14] | 97 | 1.5 | 0 | 0 | 0 | 0 | 0 |  |  |  |  |  |  |
| COc1ccc(OCC(=O)[C@@H]2CCCN2C(=O)[C@@H]2CCCN2C(=O)CCc2ccccc2)cc1 [Compound 20, (2S)-2-[(4-Methoxyphenoxy)acetyl]-1-[N-(3-phenylpropionyl)-L-prolyl]pyrrolidine] |  | 40 |  |  |  |  |  | 96 | 0 | 0 | 0 | 0 | 0 |
| COc1ccc(CNC(=O)N2CCC[C@H]2C(=O)N2CCC[C@H]2C(=O)C[S@+]([O-])c2ccc(OC)cc2)cc1 [Compound 24, (2S)-1-[N-(4-Methoxybenzylaminocarbonyl)-L-prolyl]-2-{[(S)-4-methoxyphenylsulfinyl]acetyl}pyrrolidine] | 99 | 0.5 | 0 | 0 | 0 | 0 | 0 |  |  |  |  |  |  |
| O=C(COc1ccccc1)[C@@H]1CCCN1C(=O)[C@@H]1CCCN1C(=O)COc1ccccc1 [Compound 46, (2S)-2-(Phenoxyacetyl)-1-[N-(phenoxyacetyl)-L-prolyl]pyrrolidine] |  | 60 |  |  |  |  |  | 93 | 0 | 0 | 0 | 0 | 0 |
| CC(C)[S+]([O-])CC(=O)[C@@H]1CCCN1C(=O)[C@@H]1CCCN1C(=O)OCc1ccccc1 (stereo partly drawn) [Compound 8, (2S)-1-(N-Benzyloxycarbonyl-L-prolyl)-2-[(isopropylsulfinyl)-acetyl]pyrrolidine] | 92 | 3 | 0 | 0 | 0 | 0 | 0 |  |  |  |  |  |  |
| O=C(COc1ccccc1)[C@@H]1CCCN1C(=O)[C@@H]1CSCN1C(=O)NCc1ccccc1 [Compound 51, (2S)-1-[N-(Benzylaminocarbonyl)-L-thioprolyl]-2-(phenoxyacetyl)pyrrolidine] |  | 15 |  |  |  |  |  | 98 | 0 | 0 | 0 | 0 | 0 |
| O=C(COc1ccccn1)[C@@H]1CCCN1C(=O)[C@@H]1CCCN1C(=O)NCc1ccccc1 [Compound 54, (2S)-1-[N-(Benzylaminocarbonyl)-L-prolyl]-2-[(2-pyridyloxy)acetyl]pyrrolidine] |  | 200 |  |  |  |  |  | 85 | 0 | 0 | 0 | 0 | 0 |
| O=C(C[S@+]([O-])c1ccccc1)[C@@H]1CCCN1C(=O)[C@@H]1CCCN1C(=O)CCc1ccccc1 [Compound 17, (2S)-1-[N-(3-Phenylpropionyl)-L-prolyl]-2-{[(S)-phenylsulfinyl]acetyl}pyrrolidine] | 99 | 0.5 | 0 | 0 | 0 | 0 | 0 |  |  |  |  |  |  |
| O=C(C[S@+]([O-])c1ccccc1)[C@@H]1CCCN1C(=O)[C@@H]1CCCN1C(=O)OCc1ccccc1 [Compound 9, (2S)-1-(N-Benzyloxycarbonyl-L-prolyl)-2-{[(S)-phenylsulfinyl]-acetyl}pyrrolidine] | 98 | 0.2 | 0 | 0 | 0 | 0 | 0 |  |  |  |  |  |  |
| COc1ccc([S@@+]([O-])CC(=O)[C@@H]2CCCN2C(=O)[C@@H]2CCCN2C(=O)CCc2ccccc2)cc1 [Compound 15] | 98 | 2.5 | 0 | 0 | 0 | 0 | 0 |  |  |  |  |  |  |
| O=C(C[S+]([O-])c1ccccc1)[C@@H]1CCCN1C(=O)[C@@H]1CCCN1C(=O)OCc1ccccc1 (stereo partly drawn) [Compound 2, (2S)-1-(N-Benzyloxycarbonyl-L-prolyl)-2-[(phenylsulfinyl)-acetyl]pyrrolidine] | 100 | 1.2 | 0 | 0 | 0 | 0 | 0 |  |  |  |  |  |  |
| COc1ccc(CNC(=O)N2CCC[C@H]2C(=O)N2CCC[C@H]2C(=O)COc2ccc(OC)cc2)cc1 [Compound 25, (2S)-1-[N-(4-Methoxybenzylaminocarbonyl)-L-prolyl]-2-(4-methoxyphenoxyacetyl)pyrrolidine] | 97 | 2.5 | 0 | 0 | 0 | 0 | 0 |  |  |  |  |  |  |
